The record followed here is ChEMBL document CHEMBL4739717, “Methods of treating cartilage disorders through inhibition of clk and dyrk” (2020).

A short description of test [1]: Induction of chondrogenesis in human MSC assessed as maximum activity at 30 nM incubated for 6 days by rhodamine B and Nile red staining based imaging analysis relative to control. The class given is functional. The note with it: BMMSC, 144 h, time 6 day.
For test [2], the target named is Dual specificity tyrosine-phosphorylation-regulated kinase 1A (Homo sapiens, UniProt Q13627). Briefly: Inhibition of recombinant DYRK1A (unknown origin) using Ser/Thr 18 peptide as substrate incubated for 1 hr in presence of ATP by FRET assay.
Test [3] in a line: Effect on Wnt signaling pathway in human SW480 cells harbouring TCF/LEF luciferase reporter gene and SP5-Luc reporter gene incubated for 36 to 48 hrs by luminescence assay. The class given is cell-based.
The nature of test [4]: Induction of chondrogenesis in human MSC assessed as incubated for 6 days by rhodamine B and Nile red staining based imaging analysis. The class given is functional. Conditions: bmmsc.
The nature of test [5]: Induction of chondrogenesis in human MSC assessed as maximum activity at 10 nM incubated for 6 days by rhodamine B and Nile red staining based imaging analysis relative to control. The class given is functional. The note with it: BMMSC, 144 h, time 6 day.
Test [6] can be described thus: Inhibition of IL1-beta induced MMP3 expression levels in human chondrocytes assessed as MMP3 levels incubated for 2hrs followed by IL1-beta stimulation and measured after overnight incubation by LANCE assay. The class given is functional, cell-based. The note with it: Chondrocyte.

Molecules are shown by their SMILES. A value given as a limit tells only on which side of the number the result lay.

Take `Fc1cccc(-c2nccc3[nH]c(-c4n[nH]c5ccc(-c6cccnc6)nc45)cc23)c1`: in test [1], the maximal response (Emax) at 0.03 µM came out at 44.8%. In addition, the EC50 in test [2] was 28 nM; in test [3], 1350 nM.
As for `CN1CCN(c2cncc3[nH]c(-c4n[nH]c5ccc(-c6cncc(N7CCOCC7)c6)cc45)nc23)CC1`, the Emax at 0.03 µM in test [1] came out at 63.8%. Besides, the EC50 stood at 2 nM in test [2] and 83 nM in test [3].
Take `Cc1ccc(NC(=O)c2n[nH]c3ccc(-c4cncc(CN5CCCCC5)c4)cc23)cn1`: the Emax at 0.03 µM in test [1] is 102%. Besides, the concentration giving a half-maximal response (EC50) was 57 nM in test [3] and 30 nM in test [4].
Turning to `CC(C)CC(=O)Nc1ccncc1NC(=O)c1n[nH]c2ccc(-c3cncc(CN4CCCCC4)c3)cc12`, in test [1], the Emax at 0.03 µM amounted to 45.4%. Also, the EC50 in test [2] came out at 59 nM; in test [3], 25 nM.
`CC(C)CC(=O)Nc1cncc(-c2ccc3[nH]nc(-c4nc5c(-c6cccc(F)c6)ccnc5[nH]4)c3c2)c1`: in test [1], the Emax at 0.03 µM worked out at 61%. The values for the EC50 in test [2] and in test [3] were 43 nM and 1.4 nM, respectively.
Take `c1cncc(-c2cnc3[nH]nc(-c4nc5c(-c6cccs6)cccc5[nH]4)c3c2)c1`: in test [1], the Emax at 0.03 µM was 41.6%. Further, the values for the 50% effective concentration (EC50) in test [2] and in test [3] were 83 nM and 12 nM, respectively.
Taken in the same sequence, the figures for `c1csc(-c2cncc3[nH]c(-c4n[nH]c5ncc(-c6cncc(CNCC7CCCC7)c6)cc45)nc23)c1` were 74.6%, 16 nM and 98 nM.
The like results for `CC(C)(C)C(=O)Nc1cncc(-c2cc3c(-c4cc5c(-c6ccncc6)cncc5[nH]4)n[nH]c3cn2)c1` were, in that order, 30.4%, 8 nM and greater than 10000 nM.
In the case of `O=C(CC1CCNCC1)Nc1cncc(-c2ccc3[nH]nc(-c4cc5c(-c6ccccn6)cccc5[nH]4)c3n2)c1`, the Emax at 0.03 µM in test [1] was found to be 8.03%. Moreover, the values for the EC50 in test [2] and in test [3] were 10 nM and 1440 nM, respectively.
For the compound `O=C(Nc1cncc(-c2cc3c(-c4cc5cccnc5[nH]4)n[nH]c3cn2)c1)C1CC1`, in test [1], the Emax at 0.03 µM worked out at 17.7%. Moreover, the EC50 in test [2] was 6 nM; in test [3], greater than 10000 nM.
The like results for `O=C(Nc1cncc(-c2ccc3[nH]nc(-c4cc5cccnc5[nH]4)c3c2)c1)C1CCCC1` were, in that order, 30.2%, 6 nM and 271 nM.
Take `CCNCc1cncc(-c2ccc3[nH]nc(-c4cc5c(-c6cccnc6)ccnc5[nH]4)c3c2)c1`: in test [1], the Emax at 0.03 µM came to 28.7%. Moreover, the half-maximal effective concentration (EC50) in test [2] was 56 nM; in test [3], greater than 10000 nM.
For the compound `Cc1ccc(-c2nccc3[nH]c(-c4n[nH]c5ccc(-c6cncc(N)c6)nc45)nc23)s1`, the maximal effect (Emax) at 0.01 µM in test [5] stood at 72.6%. Moreover, the concentration giving a half-maximal response (EC50) in test [2] was 2 nM; in test [3], 45.5 nM; in test [6], 3000 nM; in test [4] it was 10 nM.
Take `Nc1cncc(-c2ccc3[nH]nc(-c4cc5cccnc5[nH]4)c3c2)c1`: the Emax at 0.03 µM in test [1] was determined as 35.5%. The values for the EC50 in test [2] and in test [3] were 2 nM and 102 nM, respectively.
Consider `CC(C)CC(=O)Nc1cncc(-c2cc3c(-c4nc5c(-c6cc(F)cc(OCCN7CCCC7)c6)cncc5[nH]4)n[nH]c3cn2)c1`, for which the maximum response (Emax) at 0.01 µM in test [5] came to 20.3%. The EC50 in test [2] is 3 nM; in test [3], greater than 10000 nM; in test [6], 3000 nM.
As for `CCNCc1cncc(-c2cc3c(-c4cc5c(-c6cccnc6)cncc5[nH]4)n[nH]c3cn2)c1`, the Emax at 0.01 µM in test [5] turned out to be 67.6%. Moreover, the EC50 in test [2] came to 2 nM; in test [3] it was 3730 nM; in test [6], 3000 nM; in test [4] it was 10 nM.
As for `CC(C)(C)CC(=O)Nc1cncc(-c2cnc3[nH]nc(-c4cc5c(-c6cccnc6)cncc5[nH]4)c3c2)c1`, in test [1], the Emax at 0.03 µM was 37.3%. Also, the EC50 is 4 nM in test [2] and greater than 10000 nM in test [3].
Taken in the same sequence, the figures for `CN(C)Cc1cncc(-c2cc3c(-c4cc5c(N6CCN(C)CC6)nccc5[nH]4)n[nH]c3cn2)c1` were 13.9%, 43 nM and 3890 nM.
Take `CC(C)Oc1ccc(NC(=O)c2n[nH]c3ccc(-c4cncc(CN5CC6CC(C5)O6)c4)cc23)cn1`: in test [5], the Emax at 0.01 µM was 75.7%. Moreover, the EC50 in test [3] came out at 61 nM; in test [6], 0.2 nM; in test [4], 30 nM.
Turning to `CCC(=O)Nc1cncc(-c2cnc3[nH]nc(-c4nc5c(-c6cccs6)cncc5[nH]4)c3c2)c1`, the Emax at 0.03 µM in test [1] came to 69.8%. The figures for the EC50 in test [2] and in test [3] were 23 nM and 4 nM, respectively.
Consider `c1cc2cc(-c3n[nH]c4ccc(-c5cncc(OCCN6CCCC6)c5)cc34)[nH]c2cn1`, for which the Emax at 0.03 µM in test [1] came out at 44.6%. The EC50 in test [2] turned out to be 4 nM; in test [3], 1850 nM.
With `Nc1cncc(-c2ccc3[nH]nc(-c4cc5c(-c6ccncc6)ccnc5[nH]4)c3n2)c1`, the Emax at 0.03 µM in test [1] came out at 26.9%. In addition, the EC50 in test [2] is 8 nM; in test [3], greater than 10000 nM.
Consider `CC(C)(C)C(=O)Nc1cncc(-c2ccc3[nH]nc(-c4nc5c(-c6ccc(F)cc6)cncc5[nH]4)c3n2)c1`, for which the Emax at 0.03 µM in test [1] is 41.8%. Moreover, the EC50 was 64 nM in test [2] and 2730 nM in test [3].
In the case of `c1cncc(-c2cc3c(-c4cc5cccnc5[nH]4)n[nH]c3cn2)c1`, the Emax at 0.03 µM in test [1] came out at 27.6%. Also, the EC50 in test [2] was 5 nM; in test [3], greater than 10000 nM.
As to `c1cncc(-c2cc3c(-c4cc5cnccc5[nH]4)n[nH]c3cn2)c1`, the Emax at 0.01 µM in test [5] is 62%. Moreover, the values for the EC50 in test [2], in test [3] and in test [4] were 2 nM, 133 nM and 30 nM, respectively.
For `c1csc(-c2nccc3[nH]c(-c4n[nH]c5cnc(-c6cncc(CN7CCCCC7)c6)cc45)cc23)c1`, the Emax at 0.01 µM in test [5] came to 59%. The EC50 in test [2] was 31 nM; in test [3] it was 3680 nM; in test [4] it was 10 nM.
The like results for `CS(=O)(=O)NCc1cc(F)cc(-c2nccc3[nH]c(-c4n[nH]c5cnc(-c6cncc(CNCC7CCCC7)c6)cc45)cc23)c1` were, in that order, 52.3%, 27 nM, greater than 10000 nM and 30 nM.
On to `CC(C)Nc1cncc(-c2ccc3[nH]nc(-c4nc5c(-c6cccnc6)cncc5[nH]4)c3n2)c1`, for which the maximal response (Emax) at 0.01 µM in test [5] came out at 64.6%. Moreover, the EC50 came out at 15 nM in test [2], 1270 nM in test [3] and 30 nM in test [4].
Consider `Cc1ccncc1-c1cnc2[nH]nc(-c3nc4c(-c5cc(F)cc(CNS(C)(=O)=O)c5)nccc4[nH]3)c2c1`, for which, in test [5], the Emax at 0.01 µM stood at 92.8%. Also, the figures for the concentration giving a half-maximal response (EC50) in test [2], in test [3] and in test [4] were 84 nM, 124 nM and 10 nM, respectively.
Turning to `CCCCC(=O)Nc1cncc(-c2cc3c(-c4cc5c(-c6cccnc6)ccnc5[nH]4)n[nH]c3cn2)c1`, the maximal response (Emax) at 0.01 µM in test [5] turned out to be 52.8%. Besides, the figures for the concentration giving a half-maximal response (EC50) in test [2], in test [3] and in test [4] were 29 nM, greater than 10000 nM and 10 nM, respectively.
As to `CN(C)CCNc1cc(F)cc(-c2cccc3[nH]c(-c4n[nH]c5cnc(-c6cncc(O)c6)cc45)cc23)c1`, in test [5], the Emax at 0.01 µM came out at 66.4%. Also, the EC50 was 60 nM in test [2], 405 nM in test [3] and 10 nM in test [4].
In the case of `CC(C)CC(=O)Nc1cncc(-c2cc3c(-c4cc5c(-c6cccs6)nccc5[nH]4)n[nH]c3cn2)c1`, the Emax at 0.01 µM in test [5] worked out at 81.4%. Further, the figures for the EC50 in test [2], in test [3] and in test [4] were 44 nM, 572 nM and 10 nM, respectively.
